{"source": "PubChem BioAssay AID256", "about": "(DTP/NCI, 2004)", "system": "CD2F1 mice, L1210 leukemia ip, survival T/C", "experiment": "NCI In Vivo Anticancer Drug Screen. Data for tumor model L1210 Leukemia (intraperitoneal) in CD2F1 (CDF1) mice", "conditions": "higher = longer survival", "outline": "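Tumor-bearing mice (transplanted tumor) were split into treated and vehicle control groups, and the measured endpoint of each treated group was divided by that of its vehicle controls.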", "key": {"[1]": {"conditions": "endpoint: mean survival time, dose: 100.0 mg/kg/injection, schedule: Q04DX003 (ip), vehicle: saline with Tween-80"}, "[2]": {"conditions": "endpoint: mean survival time, dose: 200.0 mg/kg/injection, schedule: Q04DX003 (ip), vehicle: saline with Tween-80"}, "[3]": {"conditions": "endpoint: mean survival time, dose: 100.0 mg/kg/injection, schedule: Q01DX009 (ip), vehicle: saline with Tween-80"}, "[4]": {"conditions": "endpoint: mean survival time, dose: 400.0 mg/kg/injection, schedule: Q04DX003 (ip), vehicle: saline with Tween-80"}, "[5]": {"conditions": "endpoint: mean survival time, dose: 100.0 mg/kg/injection, schedule: Q01DX001 (ip), vehicle: saline"}, "[6]": {"conditions": "endpoint: mean survival time, dose: 200.0 mg/kg/injection, schedule: Q01DX001 (ip), vehicle: saline"}}, "note": "Several values for one entry are separate records, joined by “and”; a condition that tells them apart may be missing. Equal values may be shown once. Inconclusive results and toxic doses are left out."}
{"compound": "Nc1cc2c(cc1Br)-c1c(C(=O)O)cccc1C2O", "note": "(stereo not given)", "values": [{"measurement": "T/C", "setting": "endpoint: median survival time, dose: 50.0 mg/kg/injection, schedule: Q01DX005 (ip), vehicle: sodium bicarbonate", "value": "100 % of control"}, {"measurement": "T/C", "setting": "endpoint: median survival time, dose: 100.0 mg/kg/injection, schedule: Q01DX005 (ip), vehicle: sodium bicarbonate", "value": "101 % of control"}, {"measurement": "T/C", "setting": "endpoint: median survival time, dose: 200.0 mg/kg/injection, schedule: Q01DX005 (ip), vehicle: sodium bicarbonate", "value": "113 % of control"}, {"measurement": "T/C", "setting": "endpoint: median survival time, dose: 400.0 mg/kg/injection, schedule: Q01DX005 (ip), vehicle: sodium bicarbonate", "value": "122 % of control"}, {"measurement": "T/C", "setting": "endpoint: median survival time, dose: 800.0 mg/kg/injection, schedule: Q01DX005 (ip), vehicle: sodium bicarbonate", "value": "122 % of control"}]}
{"compound": "Cc1cc(Cl)c(OCC(=O)O)c(Cl)c1", "values": [{"measurement": "T/C", "setting": "[1]", "value": "100 % of control"}, {"measurement": "T/C", "setting": "[2]", "value": "100 % of control"}]}
{"compound": "CCCCCCCCCCCCOCC[N+](CCO)(CCO)Cc1ccccc1", "values": [{"measurement": "T/C", "setting": "endpoint: mean survival time, dose: 0.25 mg/kg/injection, schedule: Q01DX009 (ip), vehicle: saline", "value": "91 % of control"}, {"measurement": "T/C", "setting": "endpoint: mean survival time, dose: 0.5 mg/kg/injection, schedule: Q01DX009 (ip), vehicle: saline", "value": "107 % of control"}, {"measurement": "T/C", "setting": "endpoint: mean survival time, dose: 1.0 mg/kg/injection, schedule: Q01DX009 (ip), vehicle: saline", "value": "90 % of control"}, {"measurement": "T/C", "setting": "endpoint: mean survival time, dose: 5.0 mg/kg/injection, schedule: Q04DX003 (ip), vehicle: saline", "value": "102 % of control"}, {"measurement": "T/C", "setting": "endpoint: mean survival time, dose: 10.0 mg/kg/injection, schedule: Q04DX003 (ip), vehicle: saline", "value": "101 % of control"}, {"measurement": "T/C", "setting": "endpoint: mean survival time, dose: 20.0 mg/kg/injection, schedule: Q04DX003 (ip), vehicle: saline", "value": "93 % of control"}]}
{"compound": "CC(C)NC(=O)N(c1ccccc1)C(C)C", "values": [{"measurement": "T/C", "setting": "[3]", "value": "102 % of control"}, {"measurement": "T/C", "setting": "endpoint: mean survival time, dose: 200.0 mg/kg/injection, schedule: Q01DX009 (ip), vehicle: saline with Tween-80", "value": "90 % of control"}]}
{"compound": "NCCN.[Ni+2].[O-]c1ccccc1[O-].[O-]c1ccccc1[O-]", "values": [{"measurement": "T/C", "setting": "endpoint: mean survival time, dose: 0.78 mg/kg/injection, schedule: Q01DX009 (ip), vehicle: other", "value": "96 % of control"}, {"measurement": "T/C", "setting": "endpoint: mean survival time, dose: 1.56 mg/kg/injection, schedule: Q01DX009 (ip), vehicle: other", "value": "93 % of control"}, {"measurement": "T/C", "setting": "endpoint: mean survival time, dose: 3.13 mg/kg/injection, schedule: Q01DX009 (ip), vehicle: other", "value": "108 % of control"}, {"measurement": "T/C", "setting": "endpoint: mean survival time, dose: 6.25 mg/kg/injection, schedule: Q01DX009 (ip), vehicle: other", "value": "112 % of control"}, {"measurement": "T/C", "setting": "endpoint: mean survival time, dose: 12.5 mg/kg/injection, schedule: Q01DX009 (ip), vehicle: other", "value": "98 % of control"}]}
{"compound": "CN(C)c1ccc(N=Nc2cccc(Cl)c2Cl)cc1", "values": [{"measurement": "T/C", "setting": "endpoint: mean survival time, dose: 25.0 mg/kg/injection, schedule: Q01DX009 (ip), vehicle: saline with Tween-80", "value": "102 % of control"}, {"measurement": "T/C", "setting": "endpoint: mean survival time, dose: 50.0 mg/kg/injection, schedule: Q01DX009 (ip), vehicle: saline with Tween-80", "value": "97 % of control"}, {"measurement": "T/C", "setting": "[3]", "value": "105 % of control"}, {"measurement": "T/C", "setting": "[1]", "value": "95 % of control"}, {"measurement": "T/C", "setting": "[2]", "value": "98 % of control"}, {"measurement": "T/C", "setting": "[4]", "value": "104 % of control"}]}
{"compound": "O=[N+]([O-])c1ccc2c([N+](=O)[O-])ccc3c2c1CC3", "values": [{"measurement": "T/C", "setting": "[1]", "value": "100 % of control"}, {"measurement": "T/C", "setting": "[2]", "value": "109 % of control"}, {"measurement": "T/C", "setting": "[4]", "value": "97 % of control"}]}
{"compound": "CCN(CC)CCCNc1ncnc(Cl)c1C(=C(C)C)c1ccccc1", "values": [{"measurement": "T/C", "setting": "[5]", "value": "97 % of control"}, {"measurement": "T/C", "setting": "[6]", "value": "105 % of control"}]}
{"compound": "O=c1cnn(C2OC(CO)C(O)C2O)c(=O)[nH]1", "note": "(stereo not given)", "values": [{"measurement": "T/C", "setting": "endpoint: mean survival time, dose: 12.5 mg/kg/injection, schedule: Q03HX024 (ip), vehicle: saline", "value": "119 % of control"}, {"measurement": "T/C", "setting": "endpoint: mean survival time, dose: 50.0 mg/kg/injection, schedule: Q01DX005 (ip), vehicle: water", "value": "115 % of control and 120 % of control"}, {"measurement": "T/C", "setting": "endpoint: mean survival time, dose: 50.0 mg/kg/injection, schedule: Q03HX024 (ip), vehicle: saline", "value": "91 % of control"}, {"measurement": "T/C", "setting": "[5]", "value": "105 % of control"}, {"measurement": "T/C", "setting": "endpoint: mean survival time, dose: 100.0 mg/kg/injection, schedule: Q01DX005 (ip), vehicle: water", "value": "117 % of control and 121 % of control and 106 % of control"}, {"measurement": "T/C", "setting": "endpoint: mean survival time, dose: 100.0 mg/kg/injection, schedule: Q01DX009 (ip), vehicle: distilled water + Tween-80", "value": "119 % of control"}, {"measurement": "T/C", "setting": "endpoint: mean survival time, dose: 100.0 mg/kg/injection, schedule: Q01DX009 (ip), vehicle: saline", "value": "122 % of control"}, {"measurement": "T/C", "setting": "endpoint: mean survival time, dose: 143.0 mg/kg/injection, schedule: Q03HX016 (ip), vehicle: other", "value": "122 % of control"}, {"measurement": "T/C", "setting": "[6]", "value": "101 % of control"}, {"measurement": "T/C", "setting": "endpoint: mean survival time, dose: 200.0 mg/kg/injection, schedule: Q01DX005 (ip), vehicle: water", "value": "121 % of control and 123 % of control and 108 % of control"}, {"measurement": "T/C", "setting": "endpoint: mean survival time, dose: 200.0 mg/kg/injection, schedule: Q01DX009 (ip), vehicle: saline", "value": "86 % of control"}, {"measurement": "T/C", "setting": "endpoint: mean survival time, dose: 300.0 mg/kg/injection, schedule: Q03HX024 (ip), vehicle: other", "value": "151 % of control"}, {"measurement": "T/C", "setting": "endpoint: mean survival time, dose: 400.0 mg/kg/injection, schedule: Q01DX001 (ip), vehicle: saline", "value": "108 % of control"}, {"measurement": "T/C", "setting": "endpoint: mean survival time, dose: 400.0 mg/kg/injection, schedule: Q01DX005 (ip), vehicle: water", "value": "116 % of control"}, {"measurement": "T/C", "setting": "endpoint: mean survival time, dose: 400.0 mg/kg/injection, schedule: Q01DX009 (ip), vehicle: saline", "value": "94 % of control"}, {"measurement": "T/C", "setting": "endpoint: mean survival time, dose: 500.0 mg/kg/injection, schedule: Q03HX016 (ip), vehicle: other", "value": "152 % of control"}, {"measurement": "T/C", "setting": "endpoint: mean survival time, dose: 500.0 mg/kg/injection, schedule: Q03HX024 (ip), vehicle: other", "value": "181 % of control"}, {"measurement": "T/C", "setting": "endpoint: mean survival time, dose: 800.0 mg/kg/injection, schedule: Q01DX001 (ip), vehicle: saline", "value": "110 % of control"}, {"measurement": "T/C", "setting": "endpoint: mean survival time, dose: 800.0 mg/kg/injection, schedule: Q01DX005 (ip), vehicle: water", "value": "110 % of control"}, {"measurement": "T/C", "setting": "endpoint: mean survival time, dose: 800.0 mg/kg/injection, schedule: Q01DX009 (ip), vehicle: distilled water + Tween-80", "value": "154 % of control"}, {"measurement": "T/C", "setting": "endpoint: mean survival time, dose: 1000.0 mg/kg/injection, schedule: Q03HX016 (ip), vehicle: other", "value": "152 % of control"}, {"measurement": "T/C", "setting": "endpoint: mean survival time, dose: 1000.0 mg/kg/injection, schedule: Q03HX024 (ip), vehicle: other", "value": "167 % of control"}, {"measurement": "T/C", "setting": "endpoint: mean survival time, dose: 1600.0 mg/kg/injection, schedule: Q01DX009 (ip), vehicle: distilled water + Tween-80", "value": "160 % of control"}, {"measurement": "T/C", "setting": "endpoint: mean survival time, dose: 1600.0 mg/kg/injection, schedule: Q01DX009 (ip), vehicle: saline", "value": "121 % of control"}]}
